These results are taken from ChEMBL document CHEMBL3352668, “Synthesis and antibacterial evaluation of new, unsymmetrical triaryl bisamidine compounds” (Bioorg Med Chem Lett, 2014).

In brackets after ≈: the same amount, converted by molar mass. Some results are limits rather than exact numbers.

For one series, the system named is Enterococcus faecalis. In words: Antimicrobial activity against vancomycin-resistant Enterococcus faecalis ATCC 51575 by CLSI method. Type of series: functional. Particulars: Enterococcus faecalis, ATCC 51575; read-out: MIC.
Series [1] is described as follows: Cytotoxicity against human HeLa cells by MTS assay. Type of series: cell-based. The note with it: HeLa cells. A general note: Tetrazolium assays rely on reduction of a dye to a coloured formazan, in cell work by metabolically active cells.
Another series has as its system Staphylococcus aureus. Description: Antimicrobial activity against methicillin-resistant Staphylococcus aureus 1094 by CLSI method. Type of series: functional. Particulars: Staphylococcus aureus, 1094; read-out: MIC.
Series [2] deals with Escherichia coli. In words: Antimicrobial activity against TolC+ Escherichia coli 700 by CLSI method. It is filed as functional. Particulars: Escherichia coli, 700; read-out: MIC.
Series [3] relates to Escherichia coli. Description: Antimicrobial activity against TolC-deficient Escherichia coli by CLSI method. Type of series: functional.
A further series relates to Bacillus subtilis. Description: Antimicrobial activity against Bacillus subtilis BD54 by CLSI method. Type of series: functional. The note with it: Bacillus subtilis, BD54; read-out: MIC.
The next series deals with Klebsiella pneumoniae. Description: Antimicrobial activity against Klebsiella pneumoniae 13882 by CLSI method. It is filed as functional. Particulars: Klebsiella pneumoniae, 13882; read-out: MIC.
The subject of series [4] is Pseudomonas aeruginosa. In words: Antimicrobial activity against Pseudomonas aeruginosa PAO1 by CLSI method. It is filed as functional. Particulars: Pseudomonas aeruginosa, PAO1; read-out: MIC.
In a further series the test system is Bacillus anthracis. Description: Antimicrobial activity against Bacillus anthracis Sterne by CLSI method. Type of series: functional.
For series [5], the system named is Pseudomonas aeruginosa. Description: Antimicrobial activity against mexAB-oprM deficient Pseudomonas aeruginosa PAO1 harboring by CLSI method. It is filed as functional.
Where [6] appears, read: Escherichia coli, read-out: MIC.
Where [7] appears, read: Bacillus anthracis, Sterne, read-out: MIC.

As usually defined, the MIC is the lowest concentration that inhibits growth of the organism. The CC50 is the concentration giving 50% cytotoxicity. Read a low CC50 as greater toxicity to the cells. Turning to `CC1CNC(c2ccc3cc(-c4ccc(-c5cnc(N6CCCC6)nc5)cc4)[nH]c3c2)=N1` (stereo not given), the MIC with Enterococcus faecalis is above 80 µg/mL; in the series with Staphylococcus aureus, 40 µg/mL (≈ 94.7 µM); in the series on Escherichia coli [2], above 80 µg/mL; with Escherichia coli [3] (setting [6]), 40 µg/mL (≈ 94.7 µM); in the series with Bacillus subtilis it was 40 µg/mL (≈ 94.7 µM); with Klebsiella pneumoniae, above 80 µg/mL. In addition, the MIC with Pseudomonas aeruginosa [4] is above 80 µg/mL; in the series with Bacillus anthracis (setting [7]) it was 40 µg/mL (≈ 94.7 µM). Moreover, in series [1], the CC50 was 1.1 µg/mL (≈ 2.6 µM).
With `FC1CN=C(c2ccc3cc(-c4ccc(-c5cc6ccc(C7=NCC(F)CN7)cc6o5)cn4)[nH]c3c2)NC1` (stereo not given), the MIC with Enterococcus faecalis was determined as 0.63 µg/mL (≈ 1.23 µM); with Staphylococcus aureus, 0.83 µg/mL (≈ 1.63 µM); in the series with Escherichia coli [2], 8.3 µg/mL (≈ 16.3 µM); with Escherichia coli [3] (setting [6]), 0.31 µg/mL (≈ 0.607 µM); with Bacillus subtilis, 0.16 µg/mL (≈ 0.313 µM); with Klebsiella pneumoniae, 2.5 µg/mL (≈ 4.9 µM). Moreover, the MIC in the series on Pseudomonas aeruginosa [4] came to 8.3 µg/mL (≈ 16.3 µM); in the series with Bacillus anthracis (setting [7]), 0.63 µg/mL (≈ 1.23 µM). The compound further came in with a CC50 in series [1] of 19.6 µg/mL (≈ 38.4 µM).
Consider `CC1CNC(c2ccc3cc(-c4ccc(-c5cc6ccc(C7=NC(C)CN7)cc6o5)cc4)[nH]c3c2)=N1` (stereo in doubt), for which the minimal inhibitory concentration (MIC) was 0.39 µg/mL (≈ 0.824 µM) in the series with Enterococcus faecalis; 0.31 µg/mL (≈ 0.655 µM) in the series on Staphylococcus aureus; 0.63 µg/mL (≈ 1.33 µM) with Escherichia coli [2]; 0.63 µg/mL (≈ 1.33 µM) against Escherichia coli [3]; 0.2 µg/mL (≈ 0.422 µM) with Bacillus subtilis; 2.5 µg/mL (≈ 5.28 µM) in the series with Klebsiella pneumoniae. The results for the minimal inhibitory concentration (MIC) with Pseudomonas aeruginosa [4] and in the series on Bacillus anthracis were 60 µg/mL (≈ 127 µM) and 0.31 µg/mL (≈ 0.655 µM), respectively. In [1], half-maximal cytotoxicity (CC50) was put at 5.7 µg/mL (≈ 12 µM).
Take `FC1CN=C(c2ccc3cc(-c4ccc(-c5cc6ccc(C7=NCC(F)CN7)cc6o5)cc4)[nH]c3c2)NC1` (stereo not given): the minimal inhibitory concentration (MIC) against Pseudomonas aeruginosa [5] was 2.5 µg/mL (≈ 4.91 µM); in the series on Enterococcus faecalis, 0.31 µg/mL (≈ 0.608 µM); with Staphylococcus aureus, 0.31 µg/mL (≈ 0.608 µM); with Escherichia coli [2] it was 1.25 µg/mL (≈ 2.45 µM); in the series with Escherichia coli [3] (setting [6]), 0.27 µg/mL (≈ 0.53 µM); in the series on Bacillus subtilis it was 0.16 µg/mL (≈ 0.314 µM). Moreover, the figures for the MIC with Klebsiella pneumoniae, in the series with Pseudomonas aeruginosa [4] and in the series on Bacillus anthracis (setting [7]) were 0.63 µg/mL (≈ 1.24 µM), 5 µg/mL (≈ 9.81 µM) and 0.31 µg/mL (≈ 0.608 µM), respectively. The compound further came in with a cytotoxic concentration (CC50) in [1] of 47.5 µg/mL (≈ 93.2 µM).
With `Cc1c(-c2ccc(-c3cc4ccc(C5=NCCCN5)cc4o3)cc2)[nH]c2cc(C3=NCCCN3)ccc12`, the minimum inhibitory concentration (MIC) was determined as 0.16 µg/mL (≈ 0.328 µM) in the series on Enterococcus faecalis; 0.16 µg/mL (≈ 0.328 µM) in the series with Staphylococcus aureus; 0.31 µg/mL (≈ 0.636 µM) with Escherichia coli [2]; 0.31 µg/mL (≈ 0.636 µM) in the series on Escherichia coli [3] (setting [6]); 0.08 µg/mL (≈ 0.164 µM) in the series on Bacillus subtilis; 0.31 µg/mL (≈ 0.636 µM) in the series on Klebsiella pneumoniae. For the same compound, the minimum inhibitory concentration (MIC) with Pseudomonas aeruginosa [4] was 1.25 µg/mL (≈ 2.56 µM); with Bacillus anthracis (setting [7]), 0.08 µg/mL (≈ 0.164 µM). The midpoint of cytotoxicity in series [1], the CC50, lay at 1.5 µg/mL (≈ 3.08 µM).
On to `Fc1cc(-c2cc3ccc(C4=NCCCN4)cc3[nH]2)ccc1-c1cc2ccc(C3=NCCCN3)cc2o1`, for which the minimum inhibitory concentration (MIC) in the series on Enterococcus faecalis worked out at 0.16 µg/mL (≈ 0.325 µM); in the series on Staphylococcus aureus, 0.16 µg/mL (≈ 0.325 µM); with Escherichia coli [2] it was 0.63 µg/mL (≈ 1.28 µM); in the series with Escherichia coli [3] (setting [6]), 0.31 µg/mL (≈ 0.631 µM); in the series on Bacillus subtilis, 0.08 µg/mL (≈ 0.163 µM); with Klebsiella pneumoniae it was 0.63 µg/mL (≈ 1.28 µM). Besides, the minimum inhibitory concentration (MIC) came to 2.5 µg/mL (≈ 5.09 µM) in the series on Pseudomonas aeruginosa [4] and 0.08 µg/mL (≈ 0.163 µM) in the series with Bacillus anthracis (setting [7]). In addition, in series [1], the CC50 turned out to be 14.3 µg/mL (≈ 29.1 µM).
As to `c1cc2cc(-c3ccc(-c4cc5ccc(C6=NCCN6)cc5o4)s3)[nH]c2cc1C1=NCCN1`, the MIC turned out to be 1.56 µg/mL (≈ 3.45 µM) with Enterococcus faecalis; 0.94 µg/mL (≈ 2.08 µM) with Staphylococcus aureus; 2.8 µg/mL (≈ 6.2 µM) with Escherichia coli [2]; 0.27 µg/mL (≈ 0.598 µM) in the series on Escherichia coli [3] (setting [6]); 0.16 µg/mL (≈ 0.354 µM) in the series on Bacillus subtilis; 60 µg/mL (≈ 133 µM) in the series with Klebsiella pneumoniae. Besides, the MIC turned out to be 66.7 µg/mL (≈ 148 µM) with Pseudomonas aeruginosa [4] and 1.09 µg/mL (≈ 2.41 µM) in the series with Bacillus anthracis (setting [7]). The compound also registered a CC50 in series [1] of 182 µg/mL (≈ 403 µM).
With `CC1CNC(c2ccc3cc(-c4ccc(-c5cnc(N6CCOCC6)nc5)cc4)[nH]c3c2)=N1` (stereo not given), the MIC with Enterococcus faecalis was above 80 µg/mL; in the series with Staphylococcus aureus it was above 80 µg/mL; in the series on Escherichia coli [2], above 80 µg/mL; with Escherichia coli [3] (setting [6]), 60 µg/mL (≈ 137 µM); in the series with Bacillus subtilis it was 10 µg/mL (≈ 22.8 µM); with Klebsiella pneumoniae, above 80 µg/mL. Moreover, the minimum inhibitory concentration (MIC) in the series with Pseudomonas aeruginosa [4] is above 80 µg/mL; with Bacillus anthracis (setting [7]), 22.5 µg/mL (≈ 51.3 µM). In series [1], this compound gave a half-maximal cytotoxic concentration (CC50) of 1.3 µg/mL (≈ 2.96 µM).
Regarding `NCCCNc1cc(-c2cc3ccc(C4=NCCCN4)cc3[nH]2)ccc1-c1cc2ccc(C3=NCCCN3)cc2o1`, the minimum inhibitory concentration (MIC) in the series on Enterococcus faecalis was 1.25 µg/mL (≈ 2.29 µM); in the series on Staphylococcus aureus, 0.63 µg/mL (≈ 1.15 µM); in the series on Escherichia coli [2] it was 2.5 µg/mL (≈ 4.58 µM); in the series on Escherichia coli [3] (setting [6]), 0.63 µg/mL (≈ 1.15 µM); with Bacillus subtilis, 0.24 µg/mL (≈ 0.44 µM); in the series on Klebsiella pneumoniae, 1.25 µg/mL (≈ 2.29 µM). In addition, the minimum inhibitory concentration (MIC) in the series with Pseudomonas aeruginosa [4] was 2.5 µg/mL (≈ 4.58 µM); with Bacillus anthracis (setting [7]), 0.63 µg/mL (≈ 1.15 µM). This compound also came in with a CC50 in [1] of 4.6 µg/mL (≈ 8.43 µM).
As for `c1cc2cc(-c3ccc(-c4cnc(N5CCCC5)nc4)cc3)[nH]c2cc1C1=NCCCN1`, the MIC in the series on Enterococcus faecalis was 5 µg/mL (≈ 11.8 µM); in the series with Staphylococcus aureus, 2.5 µg/mL (≈ 5.92 µM); in the series on Escherichia coli [2], above 80 µg/mL; in the series with Escherichia coli [3] (setting [6]), 0.63 µg/mL (≈ 1.49 µM); with Bacillus subtilis it was 0.63 µg/mL (≈ 1.49 µM); in the series with Klebsiella pneumoniae it was above 80 µg/mL. The MIC was above 80 µg/mL with Pseudomonas aeruginosa [4] and 0.63 µg/mL (≈ 1.49 µM) in the series on Bacillus anthracis (setting [7]). The compound further came in with a half-maximal cytotoxic concentration (CC50) in [1] of 5.7 µg/mL (≈ 13.5 µM).
For the compound `COC1CN=C(c2ccc3cc(-c4ccc(-c5cc6ccc(C7=NCC(OC)CN7)cc6o5)cc4)[nH]c3c2)NC1` (stereo not given), the MIC in the series on Enterococcus faecalis was 0.63 µg/mL (≈ 1.18 µM); in the series with Staphylococcus aureus, 0.31 µg/mL (≈ 0.581 µM); in the series with Escherichia coli [2] it was 2.5 µg/mL (≈ 4.68 µM); with Escherichia coli [3] (setting [6]) it was 0.24 µg/mL (≈ 0.45 µM); in the series on Bacillus subtilis, 0.08 µg/mL (≈ 0.15 µM); in the series with Klebsiella pneumoniae it was 1.25 µg/mL (≈ 2.34 µM). Besides, the minimum inhibitory concentration (MIC) is above 80 µg/mL in the series with Pseudomonas aeruginosa [4] and 0.31 µg/mL (≈ 0.581 µM) in the series on Bacillus anthracis (setting [7]). This compound also displayed a CC50 in series [1] of 6 µg/mL (≈ 11.2 µM).
